Assay results taken from the NIST ThermoML archive (doi:10.1021/je800026p).

Experiment: xn = mol fraction of the nth substance listed
Conditions: 101 kPa, Liquid; for speed of sound: Sing-around technique in a fixed-path interferometer; for mass density: Vibrating tube method

CCCCCCOCCOCCO [2-(2-hexyloxyethoxy)ethanol] + CCCCNCCCC
Conditions | mass density, 288.15 K [kg/m3] | mass density, 293.15 K [kg/m3] | speed of sound, 288.15 K [m/s] | speed of sound, 293.15 K [m/s] | speed of sound, 298.15 K [m/s]
x1 = 0.0974 | 787.886 | 783.751 | 1301.4 | 1282.3 | 1262.9
x1 = 0.1441 | 798.114 | 793.988 | 1308.1 | 1289.2 | 1270.5
x1 = 0.1908 | 808.103 | 804 | 1314.8 | 1296 | 1277.8
x1 = 0.253 | 820.984 | 816.934 | 1323.5 | 1304.8 | 1287
x1 = 0.2986 | 830.092 | 826.059 | 1329.8 | 1311.2 | 1293.6
x1 = 0.3606 | 842 | 837.97 | 1338 | 1319.7 | 1302.1
x1 = 0.4018 | 849.578 | 845.585 | 1343.4 | 1325.2 | 1307.6
x1 = 0.4584 | 859.635 | 855.602 | 1350.4 | 1332.6 | 1315
x1 = 0.5091 | 868.247 | 864.218 | 1356.7 | 1339 | 1321.3
x1 = 0.5435 | 873.936 | 869.891 | 1360.8 | 1343.2 | 1325.7
x1 = 0.587 | 880.891 | 876.847 | 1365.8 | 1348.4 | 1330.9
x1 = 0.6097 | 884.459 | 880.409 | 1368.4 | 1351 | 1333.6
x1 = 0.6572 | 891.716 | 887.648 | 1373.6 | 1356.4 | 1339
x1 = 0.7023 | 898.412 | 894.343 | 1378.3 | 1361.3 | 1344.1
x1 = 0.7451 | 904.586 | 900.53 | 1382.7 | 1365.7 | 1348.6
x1 = 0.8144 | 914.195 | 910.151 | 1389.4 | 1372.4 | 1355.5
x1 = 0.8675 | 921.188 | 917.168 | 1394.2 | 1377.2 | 1360.3
x1 = 0.9083 | 926.329 | 922.317 | 1397.7 | 1380.6 | 1363.7
x1 = 0.9414 | 930.322 | 926.329 | 1400.4 | 1383.2 | 1366.2
